Measured values reported in patent US11833211B2, “Methods of suppression and treatment of disease comprising administering bicycle peptide ligands specific for EphA2” (BicycleTx Limited, priority 2017, dated 2023).

Tests used:
[1] = biological target: T1, human EphA2 (Homo sapiens, UniProt P29317); assay: Fluorescence polarisation competition binding assay (Study 1)
T1 construct: EphA2 (Ecto); polyHis (C); purchased R&D systems (or In-house)

[2] = tested on: PC-3 xenograft; assay: Study 8: in vivo efficacy in PC-3 xenograft; parameters: species or system Mus Musculus; conditions: 15 mg/kg
[3] = biological target: T2, mouse EphA2 (Mus musculus, UniProt Q03145); format: binding
T2 construct: EphA2 (Ecto)

[4] = biological target: T3, rat EphA2 (Rattus norvegicus, UniProt D3ZBN3); assay: Fluorescence polarisation competition binding, alternative protocol (Study 2)
T3 construct: polyHis (C); made in house
T3 sequence (D3ZBN3 27-205): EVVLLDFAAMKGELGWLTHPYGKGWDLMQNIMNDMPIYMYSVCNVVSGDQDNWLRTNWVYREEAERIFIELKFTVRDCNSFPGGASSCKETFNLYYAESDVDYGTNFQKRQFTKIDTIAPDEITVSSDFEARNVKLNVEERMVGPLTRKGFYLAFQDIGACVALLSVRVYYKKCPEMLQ

T1 sequence (P29317 24-537 limits assumed): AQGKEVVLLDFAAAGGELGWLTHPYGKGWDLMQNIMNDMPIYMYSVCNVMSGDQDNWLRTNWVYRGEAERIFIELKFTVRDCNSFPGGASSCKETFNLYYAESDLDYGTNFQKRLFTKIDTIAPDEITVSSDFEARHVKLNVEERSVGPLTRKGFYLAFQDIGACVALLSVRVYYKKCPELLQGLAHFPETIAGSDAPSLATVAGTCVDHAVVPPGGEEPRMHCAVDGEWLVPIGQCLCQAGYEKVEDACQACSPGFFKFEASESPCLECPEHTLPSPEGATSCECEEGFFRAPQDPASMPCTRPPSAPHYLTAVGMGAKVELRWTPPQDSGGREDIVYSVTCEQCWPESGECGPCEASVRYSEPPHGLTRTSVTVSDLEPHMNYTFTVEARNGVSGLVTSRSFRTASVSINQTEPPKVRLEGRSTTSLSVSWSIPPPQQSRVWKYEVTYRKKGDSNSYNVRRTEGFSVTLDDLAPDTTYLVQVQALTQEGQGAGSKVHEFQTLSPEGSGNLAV
T2 sequence (Q03145 26-538 limits assumed): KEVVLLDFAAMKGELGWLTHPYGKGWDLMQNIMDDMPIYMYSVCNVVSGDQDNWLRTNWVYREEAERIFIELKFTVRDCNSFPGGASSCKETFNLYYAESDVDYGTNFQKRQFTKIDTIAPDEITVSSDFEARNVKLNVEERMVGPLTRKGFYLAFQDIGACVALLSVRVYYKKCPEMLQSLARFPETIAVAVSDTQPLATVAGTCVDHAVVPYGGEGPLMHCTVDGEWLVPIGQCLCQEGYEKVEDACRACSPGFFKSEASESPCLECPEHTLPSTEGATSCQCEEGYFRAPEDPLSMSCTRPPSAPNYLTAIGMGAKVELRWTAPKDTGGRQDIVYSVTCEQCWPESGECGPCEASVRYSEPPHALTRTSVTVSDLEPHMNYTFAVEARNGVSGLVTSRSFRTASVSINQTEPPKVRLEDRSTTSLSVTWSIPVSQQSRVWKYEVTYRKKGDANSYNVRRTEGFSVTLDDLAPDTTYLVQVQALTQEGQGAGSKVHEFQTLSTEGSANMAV

Question: `COc1cc2cc(c1Cl)N(C)C(=O)C[C@@H](OC(=O)[C@@H](C)N(C)C(=O)CCSSC(C)CCC(=O)NCCC(=O)N(C)CC(=O)N(C)CC(=O)N(C)CC(=O)N(C)CC(=O)N(C)CC(=O)N(C)CC(=O)N(C)CC(=O)N(C)CC(=O)N(C)CC(=O)N(C)CC(=O)N[C@@H](C)C(=O)N[C@@H](CCCCNC(=N)N)C(=O)N[C@@H](CC(=O)O)C(=O)N[C@H]1CSCCC(=O)N3CN4CN(C3)C(=O)CCSC[C@H](NC(=O)[C@H](CC(C)C)NC(=O)[C@@H]3CCCN3C(=O)[C@H](CC(N)=O)NC(=O)[C@H](C(C)C)NC(=O)[C@H](CC(C)C)NC(=O)[C@@H]3C[C@@H](O)CN3C1=O)C(=O)N[C@@H](CC(C)C)C(=O)N[C@@H](Cc1c[nH]cn1)C(=O)N1CCC[C@H]1C(=O)N[C@H](CC(=O)O)C(=O)N[C@@H](Cc1c[nH]c3ccccc13)C(=O)N[C@@H](CCCCNC(=N)N)C(=O)N[C@H](C(N)=O)CSCCC4=O)[C@@]1(C)O[C@@H]1[C@@H](C)[C@H]1C[C@](O)(NC(=O)O1)C(OC)/C=C/C=C(\C)C2` (stereo partly drawn) [BCY6028] was tested. Which “competition binding in the EphA2 competition binding assay (in words)” value [1] did it give?
Answer: excellent competition binding

Question: How did the body weight ([2]; after the first dosing) turn out when `CC(=O)O[C@@]12CO[C@@H]1C[C@H](O)[C@@]1(C)C(=O)[C@H](O)C3=C(C)[C@@H](OC(=O)[C@H](O)[C@@H](NC(=O)OC(C)(C)C)c4ccccc4)C[C@@](O)([C@@H](OC(=O)c4ccccc4)[C@H]21)C3(C)C` [Docetaxel] was run?
Answer: severe animal body weight loss

Question: What about the “anti-tumor activity (in words)” value ([2]; qw) of the same molecule?
Answer: significant anti-tumor activity

Question: What about the “tumor relapse after ceasing the treatment” value ([2]; qw) of the same molecule?
Answer: obvious tumor relapse

Question: Which results are given for “(β-Ala)-Sar10-A(HArg)D-Ci(HyP)LVNPLCiiLHP(D-Asp)W(HArg)Ciii [BCY6099]”?
Answer: affinity to mouse EphA2 (in words) [3]: high affinity; affinity to rat EphA2 (in words) [4]: high affinity
